Tests used:
[1] = biological target: T1, BRD4-2 (Homo sapiens, UniProt O60885); assay: BRD4-2 in vitro inhibition; type: binding
T1 construct: BRD4-2
Description: (§1) The kinase or bromodomain inhibitory activity of a compound of the invention can be determined by routine methods known to the skilled artisan without undue experimentation, or by procuring relevant analysis by a commercial vendor offering such services. […] In vivo, PI3K inhibition can be determined from target tissue biopsies by standard tissue processing in which cells are disrupted and Western Blot analysis is performed to determine the presence or absence of pAKT (substrate of PI3K) relative to a control sample. PI3K inhibition assays and BTK inhibition assays are known in the art and can be procured commercially through vendors such as Reaction Biology (Malvern, PA). The activity of a compound of the invention as an inhibitor of a bromodomain-containing protein, such as a BET protein, including BRD2, BRD3, BRD4, and/or BRDT, or an isoform or mutant thereof, may be determined in vitro, in vivo, or in a cell line. In vitro assays include assays that determine inhibition of bromodomain-containing proteins. Alternatively, inhibitor binding may be determined by running a competition experiment where a provided compound is incubated with a bromodomain-containing protein, such as a BET protein bound to known ligands, labeled or unlabeled. In vitro bromodomain inhibition assays can be performed using Alpha Screen Technology (Perkin Elmer Life and Analytical Sciences, Shelton, CT). In vivo bromodomain inhibition can be determined indirectly by evaluating the amount of a protein whose gene transcription is influenced or controlled by the bromodomain protein, for example, MYCN protein transcription is controlled by BRD4 (J.E. Delmore et al., Cell 2011, 146, 904-917; A. Puissant, Cancer Discov. 2013, 3, 308-323).

[2] = biological target: PI3K beta (Homo sapiens, UniProt P42338); assay: PI3K beta in vitro inhibition; type: biochemical
Description: as §1

[3] = biological target: PI3K gamma (Homo sapiens, UniProt P48736); assay: PI3K gamma in vitro inhibition; type: biochemical; settings: read-out: IC50 inhibition PI3K gamma
Description: as §1
(§2) IC50 inhibition data against the indicated targets were determined for compounds of the invention using standard in vitro assays (Tables 8 and 9).

[4] = biological target: BTK (Homo sapiens, UniProt Q06187); assay: BTK in vitro inhibition; type: biochemical
Description: as §1, §2

[5] = biological target: BTK C481S (Homo sapiens, UniProt Q06187, C481S); assay: BTK C481S in vitro inhibition; type: biochemical
Description: as §1, §2

[6] = biological target: T2, BRD4-1 (Homo sapiens, UniProt O60885); assay: BRD4-1 in vitro inhibition; type: binding
T2 construct: BRD4-1
Description: as §1

[7] = biological target: PI3K alpha (Homo sapiens, UniProt P42336); assay: PI3K alpha in vitro inhibition; type: biochemical
Description: as §1

[8] = biological target: CDK4 cyclinD1 (Homo sapiens, UniProt P11802); assay: CDK4 cyclinD1 in vitro inhibition; type: biochemical
Description: as §1, §2

[9] = biological target: CDK6 cyclinD1 (Homo sapiens, UniProt Q00534); assay: CDK6 cyclinD1 in vitro inhibition; type: biochemical
Description: as §1, §2

BTK C481S, sequence (Q06187 whole entry C481S): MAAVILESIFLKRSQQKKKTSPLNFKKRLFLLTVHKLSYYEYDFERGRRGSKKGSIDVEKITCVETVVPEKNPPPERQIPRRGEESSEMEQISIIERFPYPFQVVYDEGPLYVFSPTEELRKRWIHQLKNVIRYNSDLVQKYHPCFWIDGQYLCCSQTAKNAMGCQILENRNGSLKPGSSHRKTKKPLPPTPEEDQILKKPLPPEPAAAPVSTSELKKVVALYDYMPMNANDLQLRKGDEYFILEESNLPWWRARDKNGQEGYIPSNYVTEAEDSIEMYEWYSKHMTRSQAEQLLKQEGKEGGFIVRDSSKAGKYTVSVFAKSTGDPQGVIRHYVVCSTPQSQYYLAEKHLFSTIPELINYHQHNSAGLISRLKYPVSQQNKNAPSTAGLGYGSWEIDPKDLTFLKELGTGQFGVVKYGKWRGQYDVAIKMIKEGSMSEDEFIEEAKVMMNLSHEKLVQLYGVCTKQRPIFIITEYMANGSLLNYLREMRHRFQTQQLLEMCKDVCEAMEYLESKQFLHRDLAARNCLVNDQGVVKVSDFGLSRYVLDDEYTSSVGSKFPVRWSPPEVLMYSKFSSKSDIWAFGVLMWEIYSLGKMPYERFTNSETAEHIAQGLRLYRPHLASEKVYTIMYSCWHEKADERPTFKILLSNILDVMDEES
CDK6 cyclinD1, sequence (Q00534 whole entry): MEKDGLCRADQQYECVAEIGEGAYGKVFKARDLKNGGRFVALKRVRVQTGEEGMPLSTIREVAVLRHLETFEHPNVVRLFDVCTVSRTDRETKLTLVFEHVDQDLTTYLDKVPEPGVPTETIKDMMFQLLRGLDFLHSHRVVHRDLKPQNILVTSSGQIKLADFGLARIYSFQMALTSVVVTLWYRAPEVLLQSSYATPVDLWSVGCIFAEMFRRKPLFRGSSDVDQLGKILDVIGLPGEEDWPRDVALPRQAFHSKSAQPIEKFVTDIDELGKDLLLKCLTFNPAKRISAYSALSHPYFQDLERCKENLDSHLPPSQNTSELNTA
CDK6 cyclinD1, sequence (P24385 whole entry partner): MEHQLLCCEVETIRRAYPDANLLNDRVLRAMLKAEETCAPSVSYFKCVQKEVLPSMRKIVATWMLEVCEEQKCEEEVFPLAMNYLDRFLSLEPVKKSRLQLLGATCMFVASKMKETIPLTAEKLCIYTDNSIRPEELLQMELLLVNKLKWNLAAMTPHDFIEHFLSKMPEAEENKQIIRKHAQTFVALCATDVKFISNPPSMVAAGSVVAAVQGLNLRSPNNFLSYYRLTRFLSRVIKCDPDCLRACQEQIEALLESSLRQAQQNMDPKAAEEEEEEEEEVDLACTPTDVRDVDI
PI3K alpha, sequence (P42336 whole entry): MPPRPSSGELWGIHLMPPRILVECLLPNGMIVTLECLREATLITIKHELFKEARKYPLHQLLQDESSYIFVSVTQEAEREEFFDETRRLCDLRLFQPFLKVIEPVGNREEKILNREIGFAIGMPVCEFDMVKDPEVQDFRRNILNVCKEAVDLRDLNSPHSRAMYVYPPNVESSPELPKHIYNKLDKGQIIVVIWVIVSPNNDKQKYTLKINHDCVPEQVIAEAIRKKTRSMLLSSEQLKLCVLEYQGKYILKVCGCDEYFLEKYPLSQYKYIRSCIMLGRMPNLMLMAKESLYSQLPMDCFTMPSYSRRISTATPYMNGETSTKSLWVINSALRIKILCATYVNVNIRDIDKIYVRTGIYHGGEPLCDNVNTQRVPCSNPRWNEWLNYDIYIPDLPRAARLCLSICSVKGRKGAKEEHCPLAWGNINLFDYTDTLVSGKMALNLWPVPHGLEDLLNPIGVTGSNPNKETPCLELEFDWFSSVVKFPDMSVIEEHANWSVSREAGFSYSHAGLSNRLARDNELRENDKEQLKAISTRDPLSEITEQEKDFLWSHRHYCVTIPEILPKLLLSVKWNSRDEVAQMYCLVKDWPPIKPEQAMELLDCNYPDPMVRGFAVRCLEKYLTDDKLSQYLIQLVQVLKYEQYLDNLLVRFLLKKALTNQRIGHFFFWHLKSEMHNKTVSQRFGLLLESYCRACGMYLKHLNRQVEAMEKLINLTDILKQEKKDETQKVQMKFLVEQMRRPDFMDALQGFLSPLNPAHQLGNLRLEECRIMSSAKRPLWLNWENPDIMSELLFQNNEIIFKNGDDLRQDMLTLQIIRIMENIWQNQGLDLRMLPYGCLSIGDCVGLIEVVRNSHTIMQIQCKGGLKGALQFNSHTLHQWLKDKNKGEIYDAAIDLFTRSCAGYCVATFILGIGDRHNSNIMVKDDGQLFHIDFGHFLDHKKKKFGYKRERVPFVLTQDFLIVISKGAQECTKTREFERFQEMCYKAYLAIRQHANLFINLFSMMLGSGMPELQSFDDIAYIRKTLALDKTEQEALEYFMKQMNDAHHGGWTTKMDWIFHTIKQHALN
PI3K alpha, sequence (P27986 whole entry partner): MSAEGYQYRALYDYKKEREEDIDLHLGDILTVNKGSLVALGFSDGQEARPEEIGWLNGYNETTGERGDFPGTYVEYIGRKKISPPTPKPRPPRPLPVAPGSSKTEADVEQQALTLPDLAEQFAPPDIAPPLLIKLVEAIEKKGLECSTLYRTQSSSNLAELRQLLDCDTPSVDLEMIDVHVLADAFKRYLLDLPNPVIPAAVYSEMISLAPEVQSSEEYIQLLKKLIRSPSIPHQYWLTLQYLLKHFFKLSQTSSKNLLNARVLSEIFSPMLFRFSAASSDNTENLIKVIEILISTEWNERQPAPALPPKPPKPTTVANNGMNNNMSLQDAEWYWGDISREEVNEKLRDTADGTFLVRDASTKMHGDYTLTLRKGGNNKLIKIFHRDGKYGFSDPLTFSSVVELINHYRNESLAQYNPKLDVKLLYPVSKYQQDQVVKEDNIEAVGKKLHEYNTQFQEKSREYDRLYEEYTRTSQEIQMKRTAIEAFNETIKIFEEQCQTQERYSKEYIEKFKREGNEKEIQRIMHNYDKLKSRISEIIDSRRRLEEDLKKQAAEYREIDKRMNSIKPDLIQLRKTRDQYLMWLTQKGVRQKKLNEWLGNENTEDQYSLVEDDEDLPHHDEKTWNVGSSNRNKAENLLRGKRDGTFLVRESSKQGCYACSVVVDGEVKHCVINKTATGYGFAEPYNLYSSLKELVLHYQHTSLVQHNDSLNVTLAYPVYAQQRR
BTK, sequence (Q06187 whole entry): as the sequence (Q06187 whole entry C481S) above, with S481C counted along it
PI3K beta, sequence (P42338 whole entry): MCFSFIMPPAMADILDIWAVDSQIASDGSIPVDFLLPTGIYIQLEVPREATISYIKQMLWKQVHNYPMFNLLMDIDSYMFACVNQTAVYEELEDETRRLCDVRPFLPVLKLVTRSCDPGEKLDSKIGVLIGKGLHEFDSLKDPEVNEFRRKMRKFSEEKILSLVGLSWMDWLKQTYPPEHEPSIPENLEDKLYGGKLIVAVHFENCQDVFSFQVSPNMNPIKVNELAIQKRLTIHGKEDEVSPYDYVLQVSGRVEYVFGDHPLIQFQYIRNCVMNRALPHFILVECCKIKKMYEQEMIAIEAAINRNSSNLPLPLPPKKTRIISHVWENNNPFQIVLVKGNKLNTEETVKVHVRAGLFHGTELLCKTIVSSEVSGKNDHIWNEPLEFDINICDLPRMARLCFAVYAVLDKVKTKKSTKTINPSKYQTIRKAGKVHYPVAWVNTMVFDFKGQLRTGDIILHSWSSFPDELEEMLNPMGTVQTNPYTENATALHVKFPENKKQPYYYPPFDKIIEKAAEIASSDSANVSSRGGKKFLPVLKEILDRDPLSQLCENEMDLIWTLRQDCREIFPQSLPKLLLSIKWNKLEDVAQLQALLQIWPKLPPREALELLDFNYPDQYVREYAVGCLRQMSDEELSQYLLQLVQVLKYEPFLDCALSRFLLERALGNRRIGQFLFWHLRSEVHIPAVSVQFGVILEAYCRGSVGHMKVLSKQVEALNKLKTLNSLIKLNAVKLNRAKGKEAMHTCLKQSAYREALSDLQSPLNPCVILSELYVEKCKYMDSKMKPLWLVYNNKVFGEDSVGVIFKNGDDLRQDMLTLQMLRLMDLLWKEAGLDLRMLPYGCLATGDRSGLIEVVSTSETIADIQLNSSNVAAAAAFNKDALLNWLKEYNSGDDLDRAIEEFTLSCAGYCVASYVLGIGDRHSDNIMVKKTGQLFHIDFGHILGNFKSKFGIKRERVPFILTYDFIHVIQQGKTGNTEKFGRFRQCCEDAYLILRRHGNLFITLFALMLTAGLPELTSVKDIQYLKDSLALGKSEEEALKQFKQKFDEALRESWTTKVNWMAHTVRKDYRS
PI3K beta, sequence (P27986 whole entry partner): as the sequence (P27986 whole entry partner) above
CDK4 cyclinD1, sequence (P11802 whole entry): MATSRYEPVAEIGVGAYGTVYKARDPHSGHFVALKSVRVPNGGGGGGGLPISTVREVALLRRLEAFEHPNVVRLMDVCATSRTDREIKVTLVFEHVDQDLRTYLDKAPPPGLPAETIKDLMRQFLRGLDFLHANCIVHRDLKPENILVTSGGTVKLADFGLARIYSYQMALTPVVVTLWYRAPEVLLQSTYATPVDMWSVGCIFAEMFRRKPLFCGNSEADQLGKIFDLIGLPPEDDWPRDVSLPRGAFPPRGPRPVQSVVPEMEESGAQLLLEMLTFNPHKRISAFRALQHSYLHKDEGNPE
CDK4 cyclinD1, sequence (P24385 whole entry partner): as the sequence (P24385 whole entry partner) above

Structure (SMILES)	IC50 [1] [µM]	IC50 [2] [µM]	IC50 [3] [µM]	IC50 [4] [µM]	IC50 [5] [µM]	IC50 [6] [µM]	IC50 [7] [µM]	IC50 [8] [µM]	IC50 [9] [µM]
CCCCC/C=C/C(=O)Nc1cccc(-c2csc3c(=O)cc(N4CCOCC4)oc23)c1 [Compound 34]	10 to 45	1 to 10	10 to 45	> 45	> 45				
O=C(NCc1cccnc1)c1cc(-c2csc3c(=O)cc(N4CCOCC4)oc23)cc2c1OCCO2 [Compound 2]	< 0.5	< 0.5	< 0.5			< 0.5	< 0.5		
CN(C)C(=O)c1cc2cnc(Nc3ccc(-c4csc5c(=O)cc(N6CCN(C(=O)OC(C)(C)C)CC6)oc45)cc3)nc2n1C1CCCC1 [Compound 10]	1 to 10	0.5 to 1	1 to 10			0.5 to 1	1 to 10	< 0.5	< 0.5
CNC(=O)c1cc2cnc(Nc3ccc(C#Cc4csc5c(=O)cc(N6CCOCC6)oc45)cc3)nc2n1C1CCCC1 [Compound 17]	10 to 45	< 0.5	0.5 to 1			1 to 10	< 0.5	< 0.5	< 0.5
C=CC(=O)N1CCOc2ccc(-c3csc4c(=O)cc(N5CCN(C)CC5)oc34)cc21 [Compound 28]	10 to 45	1 to 10	> 45	< 0.5			10 to 45		
CN(C)C(=O)c1cc2cnc(Nc3ccc(-c4csc5c(=O)cc(N6CCOCC6)oc45)c(C(=O)O)c3)nc2n1C1CCCC1 [Compound 15]	10 to 45	< 0.5	1 to 10			10 to 45	< 0.5	1 to 10	0.5 to 1
C=CC(=O)N1CCOc2ccc(-c3csc4c(=O)cc(N5CCNCC5)oc34)cc21 [Compound 26]		1 to 10	> 45	< 0.5	10 to 45	< 0.5	10 to 45		
COC(=O)c1cc(-c2csc3c(=O)cc(N4CCOCC4)oc23)ccc1Nc1ncc2cc(C(=O)N(C)C)n(C3CCCC3)c2n1 [Compound 11]	1 to 10	< 0.5	1 to 10			< 0.5	< 0.5	> 45	> 45
CN(C)C(=O)c1cc2cnc(Nc3ccc(-c4csc5c(=O)cc(N6CCNCC6)oc45)cc3)nc2n1C1CCCC1 [Compound 9]	0.5 to 1	10 to 45	10 to 45			< 0.5	10 to 45	< 0.5	< 0.5
CC(C)n1c(C(=O)N(C)C)cc2cnc(Nc3ccc(-c4csc5c(=O)cc(N6CCOCC6)oc45)cc3)nc21 [Compound 25]	< 0.5	< 0.5	1 to 10			< 0.5	< 0.5	< 0.5	< 0.5
CN(C)C(=O)c1cc2cnc(N3CCOc4cc(-c5csc6c(=O)cc(N7CCOCC7)oc56)ccc43)nc2n1C1CCCC1 [Compound 24]		< 0.5	1 to 10				< 0.5	> 45	
CNC(=O)c1cc2cnc(Nc3ccc(-c4csc5c(=O)cc(N6CCOCC6)oc45)cc3)nc2n1C1CCCC1 [Compound 16]	< 0.5	< 0.5	1 to 10			< 0.5	< 0.5	< 0.5	< 0.5
CN(C)C(=O)c1cc2cnc(Nc3ccc(-c4csc5c(=O)cc(N6CCOCC6)oc45)cn3)nc2n1C1CCCC1 [Compound 8]	< 0.5	< 0.5	0.5 to 1			< 0.5	< 0.5	< 0.5	< 0.5
CN(C)C(=O)c1cc2cnc(Nc3ccc(-c4csc5c(=O)cc(N6CCOCC6)oc45)c(C(=O)NCCN)c3)nc2n1C1CCCC1 [Compound 22]	1 to 10	< 0.5	10 to 45			> 45	0.5 to 1	< 0.5	< 0.5
O=C(C1=CCCC1)N1CCOc2ccc(-c3csc4c(=O)cc(N5CCOCC5)oc34)cc21 [Compound 41]				1 to 10					
COC(=O)c1cc(-c2csc3c(=O)cc(N4CCN(C(=O)OC(C)(C)C)CC4)oc23)cc2c1OCCO2 [Compound 5]	> 45	1 to 10	< 0.5			< 0.5	< 0.5		
O=c1cc(N2CCNCC2)oc2c(-c3ccc4c(c3)OCCO4)csc12 [Compound 1]	10 to 45	10 to 45	> 45			< 0.5	> 45		
CN(C)C(=O)c1cc2cnc(Nc3cccc(-c4csc5c(=O)cc(N6CCOCC6)oc45)c3)nc2n1C1CCCC1 [Compound 18]	0.5 to 1	< 0.5	1 to 10			1 to 10	0.5 to 1	< 0.5	< 0.5
O=C(O)c1cc2cnc(Nc3ccc(-c4csc5c(=O)cc(N6CCOCC6)oc45)cc3)nc2n1C1CCCC1 [Compound 23]	1 to 10	< 0.5	< 0.5			0.5 to 1	< 0.5	< 0.5	< 0.5
CN(C)C(=O)c1cc2cnc(Nc3cncc(-c4csc5c(=O)cc(N6CCOCC6)oc45)c3)nc2n1C1CCCC1 [Compound 19]	1 to 10	< 0.5	1 to 10			1 to 10	0.5 to 1	< 0.5	< 0.5
C=CC(=O)Nc1cccc(-c2csc3c(=O)cc(N4CCNCC4)oc23)c1 [Compound 27]		> 45	> 45		10 to 45	0.5 to 1	> 45		
CN(C)C(=O)c1cc2cnc(Nc3ccc(-c4csc5c(=O)cc(N6CCOCC6)oc45)c(C(=O)O)c3)nc2n1C1CCCC1 [Compound 14]	10 to 45	< 0.5	< 0.5			> 45	< 0.5	10 to 45	10 to 45
CN(C)C(=O)c1cc2cnc(N(c3cncc(-c4csc5c(=O)cc(N6CCOCC6)oc45)c3)c3ncc4cc(C(=O)N(C)C)n(C5CCCC5)c4n3)nc2n1C1CCCC1 [Compound 21]	1 to 10	1 to 10	10 to 45			1 to 10	1 to 10	< 0.5	0.5 to 1
O=C(NCc1cccnc1)c1cc(-c2csc3c(=O)cc(N4CCNCC4)oc23)cc2c1OCCO2 [Compound 3]	1 to 10	1 to 10	10 to 45			< 0.5	1 to 10		
CN(C)C(=O)c1cc2cnc(Nc3csc4c(=O)cc(N5CCOCC5)oc34)nc2n1C1CCCC1 [Compound 12]	10 to 45	< 0.5	> 45			10 to 45	1 to 10	1 to 10	> 45
CN(C)C(=O)c1cc2cnc(Nc3ccc(-c4csc5c(=O)cc(N6CCOCC6)oc45)cc3C(=O)O)nc2n1C1CCCC1 [Compound 13]	0.5 to 1	< 0.5	0.5 to 1			0.5 to 1	< 0.5	> 45	> 45
C=CC(=O)N1CCOc2ccc(-c3csc4c(=O)cc(N5CCN(C(=O)OC(C)(C)C)CC5)oc34)cc21 [Compound 29]		1 to 10	10 to 45	< 0.5	10 to 45	0.5 to 1	10 to 45		
CN1CCN(c2cc(=O)c3scc(-c4cc5c(c(C(=O)NCc6cccnc6)c4)OCCO5)c3o2)CC1 [Compound 4]	1 to 10	1 to 10	10 to 45			< 0.5	10 to 45		
N#C/C(=C\C1CC1)C(=O)Nc1cccc(-c2csc3c(=O)cc(N4CCOCC4)oc23)c1 [Compound 35]	0.5 to 1	< 0.5		10 to 45	10 to 45		< 0.5		
CN(C)C(=O)c1cc2cnc(Nc3cc(C(=O)O)cc(-c4csc5c(=O)cc(N6CCOCC6)oc45)c3)nc2n1C1CCCC1 [Compound 20]	> 45	1 to 10	> 45			10 to 45	1 to 10	10 to 45	> 45

— patent US20230165873A1, “Methods of Use for Single Molecule Compounds Providing Multi-Target Inhibition to Treat Covid 19” (priority 2020, published 2023)
